Results on one compound are retold here after US7303765B2, “Ultrafine-L-carnitine, methods of preparing the same, compositions containing the same, and methods of using the same” (Sigma-Tau HealthScience S.p.A., priority 1999, dated 2007).

A short description of one data set: Solubility in water. The format is physicochemical. The text has this:
Ultra-fine L-carnitine fumarate so prepared has the following analytical properties: […]

Data set [1] is described as follows: Bioavailability / human plasma levels after dosing. To be noted: in vivo. The text has this: Transformers may therefore accomplish the target dosage using a reduced active bolus, an efficiency which translates to cost savings. In principle, consumers purchase nutritionals on a pure weight volume (W/V) basis.
Data set [2] in a line: Oral toxicity (LD50) in rats. To be noted: rat, in vivo.

SMILES strings stand for the structures.

For `C[N+](C)(C)C[C@H](O)CC(=O)[O-].O=C(O)/C=C/C(=O)O` [Ultra-fine L-carnitine fumarate, L-carnitine fumarate], in the data set “Solubility in water”, the Solubility is reported as 5 g/100 ml in water. The “bioavailability through the mitochondrial pathway” value in data set [1] (human) is “increased bioavailability”. Moreover, in data set [1], the human plasma levels result is given as “equal those of conventionally sized L-carnitine tartrate”. Further, the 50% lethal dose (LD50) (usually the dose expected to kill half of the subjects tested) in data set [2] was over 8000 mg/kg.
